{"source": "patent US20080038245A1", "about": "“Methods of modulating angiogenesis” (priority 2001, published 2008)", "key": {"BREC [1]": {"tested_on": "BREC", "experiment": "Cell migration assay (modified Boyden chamber)", "assay_type": "cell-based, bovine", "conditions": "VEGF 0.6 nM", "procedure": "Primary cultures of bovine retinal endothelial cells (BREC) were isolated and cultured as described (17). […] A modified Boyden chamber migration assay was performed by using BREC (25). The top and bottom surface of the chamber membrane was coated with collagen I. […] Cells that migrated to the bottom of the chamber were enumerated by counting SYTOX green (Molecular Probes) nucleic acid-stained cells."}, "BREC [2]": {"tested_on": "BREC", "conditions": "VEGF 0.6 nM, sentence cites ref. (2); cited from earlier work"}, "PKCβ2 and Rb": {"tested_on": "PKCβ2 and Rb", "experiment": "Association of PKCβ2 with Rb in BREC (immunoprecipitation / immunoblot)", "assay_type": "cell-based, bovine"}, "BREC [3]": {"tested_on": "BREC", "experiment": "Cell growth assay (DNA content, VEGF-induced proliferation)", "assay_type": "cell-based, bovine", "conditions": "VEGF 0.6 nM, after 4 days", "procedure": "Primary cultures of bovine retinal endothelial cells (BREC) were isolated and cultured as described (17). Only cells from passages 2-7 were used for the experiments.\nBREC were plated onto 12-well culture plates and incubated overnight in DMEM containing 10% calf serum, after which the cells were infected with adenovirus (23). After incubation for 4 days at 37° C. with or without VEGF (0.6 nM), the cells were lysed in 0.1% SDS, and the DNA content was measured by means of Hoechst-33258 dye and a fluorometer (model TKO-100, Hoefer). E2 promoter binding factor (E2F) decoys were used as described (24)."}, "Rb": {"tested_on": "Rb", "experiment": "Rb phosphorylation in BREC (phospho-specific antibodies)", "assay_type": "cell-based, bovine", "conditions": "time-dependent, all sites (S249/T242, S780, S795, S807/S811, S821)"}, "E2F": {"tested_on": "E2F", "experiment": "E2F luciferase assay in BREC", "assay_type": "cell-based, bovine", "procedure": "Luciferase reporter constructs (Mercury Cell Cycle Profiling System, CLONTECH) were introduced into cells with LipofectAMINE reagent (Life Technologies, Rockville, Md.) as instructed by the manufacturer. Luciferase activity was measured by using the Dual-Luciferase Reporter Assay system (Promega)."}}}
{"compound": "COc1cccc(-c2cc(=O)c3ccccc3o2)c1N", "note": "[PD98059]", "values": [{"measurement": "effect on VEGF-increased BREC migration", "setting": "BREC [1]", "result": "inhibited"}, {"measurement": "effect on VEGF's mitogenic activity", "setting": "BREC [2]", "result": "blocked VEGF's mitogenic activity completely"}]}
{"compound": "VEGF", "values": [{"measurement": "increase of migration of BREC", "setting": "BREC [1]", "result": 2, "unit": "fold"}, {"measurement": "increase of phosphorylated Rb levels (pS780) in PKCβ2-Rb complex", "setting": "PKCβ2 and Rb; VEGF 0.6 nM, overexpression of PKCβ2", "result": "2- to 3 fold"}, {"measurement": "increase of amount of PKCβ2-associated Rb protein", "setting": "PKCβ2 and Rb; VEGF 0.6 nM, immunoprecipitation with antibodies to Rb, immunoblot PKCβ2", "result": 1.7, "unit": "fold"}, {"measurement": "increase of association of PKCβ2 with Rb", "setting": "PKCβ2 and Rb; immunoprecipitation with anti-PKCβ2 antibody, Rb immunoblot", "result": 2.2, "unit": "fold"}, {"measurement": "increase in BREC total DNA content", "setting": "BREC [3]", "result": 2, "unit": "fold"}, {"measurement": "increase of phosphorylation of Rb", "setting": "Rb", "result": "up to 3 fold"}, {"measurement": "increase of E2F activity", "setting": "E2F", "result": 8.6, "unit": "fold"}]}
{"compound": "CN(C)CCCn1cc(C2=C(c3c[nH]c4ccccc34)C(=O)NC2=O)c2ccccc21", "note": "[GFX]", "values": [{"measurement": "effect on VEGF-increased BREC migration", "setting": "BREC [1]", "result": "inhibited"}, {"measurement": "effect on VEGF's mitogenic activity", "setting": "BREC [2]", "result": "blocked VEGF's mitogenic activity completely"}]}
{"compound": "COC[C@H]1OC(=O)c2coc3c2[C@@]1(C)C1=C(C3=O)[C@@H]2CCC(=O)[C@@]2(C)C[C@H]1OC(C)=O", "note": "[wortmannin]", "values": [{"measurement": "inhibition of VEGF-induced BREC migration", "setting": "BREC [1]", "result": 41, "unit": "%"}]}
